Columns and labels:
[1] = molecular target: 5-hydroxytryptamine receptor 6 (Homo sapiens, UniProt P50406); test: Binding affinity for human 5-hydroxytryptamine 6 receptor expressed in HEK 293 human embryonic kidney cells, [3H]-lysergic acid diethylamide as radioligand; format: cell-based, HEK293
[2] = molecular target: T1, 5-hydroxytryptamine receptor 3A (Homo sapiens, UniProt P46098); test: Compound was evaluated for its binding affinity towards 5-hydroxytryptamine 3 receptor
T1 sequence (P46098 whole entry): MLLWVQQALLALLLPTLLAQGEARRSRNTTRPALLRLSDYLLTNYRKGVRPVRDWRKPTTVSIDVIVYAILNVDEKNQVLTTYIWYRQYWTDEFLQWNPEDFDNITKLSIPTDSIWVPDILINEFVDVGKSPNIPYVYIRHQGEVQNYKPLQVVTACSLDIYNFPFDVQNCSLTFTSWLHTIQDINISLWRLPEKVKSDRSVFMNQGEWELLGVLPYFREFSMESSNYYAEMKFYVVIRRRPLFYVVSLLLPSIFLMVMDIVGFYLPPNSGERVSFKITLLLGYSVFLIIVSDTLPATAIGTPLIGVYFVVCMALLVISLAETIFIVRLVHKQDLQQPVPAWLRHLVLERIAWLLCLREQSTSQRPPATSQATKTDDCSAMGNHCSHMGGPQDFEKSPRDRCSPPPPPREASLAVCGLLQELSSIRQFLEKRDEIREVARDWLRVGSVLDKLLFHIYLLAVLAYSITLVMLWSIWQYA

Sequence of 5-hydroxytryptamine receptor 6 (P50406 whole entry): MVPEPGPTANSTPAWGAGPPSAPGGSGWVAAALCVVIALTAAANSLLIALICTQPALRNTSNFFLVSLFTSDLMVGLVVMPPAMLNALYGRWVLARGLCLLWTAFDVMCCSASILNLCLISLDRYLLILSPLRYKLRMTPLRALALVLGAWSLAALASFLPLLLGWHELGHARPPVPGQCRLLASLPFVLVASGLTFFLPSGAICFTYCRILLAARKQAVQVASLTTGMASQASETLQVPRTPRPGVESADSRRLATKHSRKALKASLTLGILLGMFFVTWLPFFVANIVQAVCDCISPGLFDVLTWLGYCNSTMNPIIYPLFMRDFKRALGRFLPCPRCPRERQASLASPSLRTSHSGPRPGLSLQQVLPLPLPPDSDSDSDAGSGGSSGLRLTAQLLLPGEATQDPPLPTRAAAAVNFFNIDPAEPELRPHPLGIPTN

SMILES | Ki [1] [nM] | Ki [2] [nM]
CCn1cc(CCN(C)C)c2cc(OC)ccc21 | 240 | 
Cc1[nH]c2ccccc2c1CCN(C)C | 300 | 
COc1ccc2[nH]c(C)c(CCN(C)C)c2c1 | 80 | 
COc1ccc2[nH]c(C)c(CCN)c2c1 | 98 | > 10000
COc1ccc2c(c1)c(CCN(C)C)cn2C | 510 | 
COc1ccc2c(c1)c(CCN(C)C)cn2C(C)C | 130 | 
CCCn1cc(CCN(C)C)c2cc(OC)ccc21 | 200 | 
Cc1[nH]c2ccc(O)cc2c1CCN | 46 | 1200
CCc1[nH]c2ccc(OC)cc2c1CCN(C)C | 52 | 
COc1ccc2[nH]c(-c3ccccc3)c(CCN(C)C)c2c1 | 54 | 

Reference: ChEMBL document CHEMBL1133711 (J Med Chem, 2000)
